In patent US8119661B2, “Piperidine derivatives and their use as muscarinic receptor modulators” (AstraZeneca AB, priority 2007, dated 2012):

Key:
cloned human M4 receptor = target: T1, cloned human M4 receptor (Homo sapiens, UniProt P08173); test: hM4 receptor GTPγS binding; format: biochemical; conditions: CHO membranes expressing hM4, [35S]GTPγS binding
T1 construct: purchased Perkin-Elmer RBHM4M; host or cells: CHO cell membranes
T1 sequence (P08173 1-479): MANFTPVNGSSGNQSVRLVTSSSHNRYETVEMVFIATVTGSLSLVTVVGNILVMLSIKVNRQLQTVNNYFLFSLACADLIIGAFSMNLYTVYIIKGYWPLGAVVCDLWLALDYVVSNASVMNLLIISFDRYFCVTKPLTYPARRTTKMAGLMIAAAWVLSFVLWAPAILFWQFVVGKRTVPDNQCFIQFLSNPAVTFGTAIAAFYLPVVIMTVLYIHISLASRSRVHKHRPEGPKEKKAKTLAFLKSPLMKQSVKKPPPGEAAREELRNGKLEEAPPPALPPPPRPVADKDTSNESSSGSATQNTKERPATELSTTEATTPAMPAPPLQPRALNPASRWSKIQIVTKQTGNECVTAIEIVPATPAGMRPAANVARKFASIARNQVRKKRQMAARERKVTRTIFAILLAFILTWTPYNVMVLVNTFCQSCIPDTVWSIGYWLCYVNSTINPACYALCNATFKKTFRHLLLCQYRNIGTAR
Procedure: Membranes produced from Chinese hamster ovary cells (CHO) expressing the cloned human M4 receptor (human Muscarinic receptor subtype 4, gene bank access NM_000741), are obtained from Perkin-Elmer (RBHM4M). The membranes are thawed at 37° C., passed 3 times through a 23-gauge blunt-end needle, diluted in the GTPγS binding buffer (50 mM Hepes, 20 mM NaOH, 100 mM NaCl, 1 mM EDTA, 5 mM MgCl2, pH 7.4, 100 μM DTT). The EC50, IC50 and Emax of the compounds of the invention are evaluated from 10-point dose-response curves (three fold concentration range) done in 60 μl in 384-well non-specific binding surface plate (Corning). Ten microliters from the dose-response curves plate (5× concentration) are transferred to another 384 well plate containing 25 μl of the following: 10 μg of hM4 membranes, 500 μg of Flashblue beads (Perkin-Elmer) and GDP 40 μM. An additional 15 μl containing 3.3× (60,000 dpm) of GTPγ^35S (0.4 nM final) are added to the wells resulting in a total well volume of 50 μl. Basal and maximal stimulated [^35S]GTPγS binding are determined in absence and presence of 30 μM final of acetylcholine agonist. The membranes/beads mix are pre-incubated for 15 minutes at room temperature with 40 μM GDP prior to distribution in plates (20 μM final). The reversal of acetylcholine-induced stimulation (10 μM final) of [^35S]GTPγS binding is used to assay the antagonist properties (IC50) of the compounds. The plates are incubated for 60 minutes at room temperature then centrifuged at 400 rpm for 5 minutes. The radioactivity (cpm) is counted in a Trilux (Perkin-Elmer).
Values of EC50, IC50 and Emax are obtained using sigmoidal fits of a non-linear curve-fitting program (XLfit version 4.2.2 Excel add-in version 4.2.2 build 18 math 1Q version 2.1.2 build 18) of percent stimulated [^35S]GTPγS binding vs. log(molar ligand). All pEC50 and pIC50 values are reported as arithmetic means±standard error of mean of ‘n’ independent experiments.

[1] = target: T2, hM5 (human Muscarinic receptor subtype 5) (Homo sapiens, UniProt P08912); test: Human M5 calcium mobilization FLIPR assay; format: cell-based; conditions: CHO cells expressing hM5, intracellular Ca2+ release
T2 construct: expressed in transfected cells; host or cells: CHO cells (Chinese hamster ovary cells, ATCC)
T2 sequence (P08912 1-532): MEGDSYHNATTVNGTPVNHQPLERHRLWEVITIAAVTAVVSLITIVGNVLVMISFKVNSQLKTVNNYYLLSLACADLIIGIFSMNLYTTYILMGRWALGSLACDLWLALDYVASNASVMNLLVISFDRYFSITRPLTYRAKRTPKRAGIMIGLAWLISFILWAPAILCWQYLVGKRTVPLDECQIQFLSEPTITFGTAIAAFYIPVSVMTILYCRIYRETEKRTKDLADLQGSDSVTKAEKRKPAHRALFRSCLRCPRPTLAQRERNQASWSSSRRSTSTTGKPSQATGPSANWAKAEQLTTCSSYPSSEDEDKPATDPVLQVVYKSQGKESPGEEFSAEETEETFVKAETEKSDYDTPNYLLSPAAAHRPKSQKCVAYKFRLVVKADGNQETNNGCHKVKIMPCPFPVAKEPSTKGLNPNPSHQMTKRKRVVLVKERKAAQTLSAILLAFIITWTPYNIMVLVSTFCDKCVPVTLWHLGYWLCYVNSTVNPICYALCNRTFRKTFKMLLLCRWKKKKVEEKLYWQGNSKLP
Procedure: The compound activity in the present invention (EC50 or IC50) is measured using a 384 plate-based imaging assay that monitors drug induced intracellular Ca^2+ release in whole cells. Activation of hM1 (human Muscarinic receptor subtype 1, gene bank access NM_000738), rM1 (rat Muscarinic receptor subtype 1, gene bank access NM_080773), hM3 (human Muscarinic receptor subtype 3, gene bank access NM_000740NM_000740) and hM5 (human Muscarinic receptor subtype 5, gene bank access NM_0121258), receptors expressed in CHO cells (Chinese hamster ovary cells, ATCC) is quantified in a Molecular Devices FLIPR II™ instrument as an increase in fluorescent signal. Inhibition of hM3 and hM5 by compounds is determined by the decrease in fluorescent signal in response to 2 nM acetylcholine activation.
Prior to experiment, the cell culture medium is removed from the plates by inversion. […] Plates are incubated at 37° C. for 60 minutes prior to start the experiment. The incubation is terminated by washing the cells four times in assay buffer, leaving a residual 25 μl buffer per well. Cell plates are then transferred to the FLIPR, ready for compound additions.
The day of experiment, acetylcholine and compounds are diluted in assay buffer in three-fold concentration range (10 points serial dilution) for addition by FLIPR instrument. For all calcium assays, a baseline reading is taken for 10 seconds followed by the addition of 12.5 μl of compounds, resulting in a total well volume of 37.5 μl. Data is collected every second for 60 pictures and then every 6 seconds for 20 pictures prior to the addition of agonist. For hM3 and hM5, before agonist addition, a second baseline reading is taken for 10 seconds followed by the addition of 12.5 μl of agonist or buffer, producing a final volume of 50 μl. After agonist stimulation, the FLIPR continues to collect data every second for 60 pictures and then every 6 seconds for 20 pictures. The fluorescence emission is read using filter 1 (emission 510-570 nm) by the FLIPR on board CCD camera.
Calcium mobilization output data are calculated as the maximal relative fluorescence unit (RFU) minus the minimal value for both compound and agonist reading frame (except for hM1 and rM1 using only the maximal RFU). Data are analyzed using sigmoidal fits of a non-linear curve-fitting program (XLfit version 4.2.2 Excel add-in version 4.2.2 build 18 math 1Q version 2.1.2 build 18). All pEC50 and pIC50 values are reported as arithmetic means±standard error of mean of ‘n’ independent experiments.

EC50 (cloned human M4 receptor) [µM] | EC50 [1] [µM] | Structure (SMILES)
> 21 | 1.1 | CCOC(=O)N1CCC(C)(N2CCC(N3C(=O)N[C@H]4CCCC[C@@H]43)CC2)C1 (mixture of isomers) [Example 07, Ethyl 3-[4-[(3aS,7aS)-2-oxo-3a,4,5,6,7,7a-hexahydro-3H-benzoimidazol-1-yl]-1-piperidyl]-3-methyl-pyrrolidine-1-carboxylate]
> 30 |  | CC1(N2CCC(N3C(=O)N[C@H]4CCCC[C@@H]43)CC2)CCN(C(=O)OCCF)C1 (mixture of isomers) [Example 08, 2-fluoroethyl 3-[4-[(3aS,7aS)-2-oxo-3a,4,5,6,7,7a-hexahydro-3H-benzoimidazol-1-yl]-1-piperidyl]-3-methyl-pyrrolidine-1-carboxylate]
> 13 | 0.313 | C#CCOC(=O)N1CCC(C)(N2CCC(N3C(=O)N[C@H]4CCCC[C@@H]43)CC2)C1 (mixture of isomers) [Example 09, Prop-2-ynyl 3-[4-[(3aS,7aS)-2-oxo-3a,4,5,6,7,7a-hexahydro-3H-benzoimidazol-1-yl]-1-piperidyl]-3-methyl-pyrrolidine-1-carboxylate]
> 30 |  | COC(=O)N1CCC(C)(N2CCC(N3C(=O)N[C@H]4CCCC[C@@H]43)CC2)C1 (mixture of isomers) [Example 10, Methyl 3-[4-[(3aS,7aS)-2-oxo-3a,4,5,6,7,7a-hexahydro-3H-benzoimidazol-1-yl]-1-piperidyl]-3-methyl-pyrrolidine-1-carboxylate]
> 30 |  | CCOC(=O)N1CCC(C)(N2CCC(N3C(=O)N[C@@H]4CCCC[C@H]43)CC2)C1 (mixture of isomers) [Example 11, Ethyl 3-[4-[(3aR,7aR)-2-oxo-3a,4,5,6,7,7a-hexahydro-3H-benzoimidazol-1-yl]-1-piperidyl]-3-methyl-pyrrolidine-1-carboxylate]
> 4 | 0.919 | CCOC(=O)N1CCC(C)(N2CCC(N3C(=O)N[C@@H]4CCCC[C@@H]43)CC2)CC1 (relative stereo) [Example 12, Ethyl 4-[4-[(cis)-2-oxo-3a,4,5,6,7,7a-hexahydro-3H-benzoimidazol-1-yl]-1-piperidyl]-4-methyl-piperidine-1-carboxylate]
> 30 | > 40 | CC(C)OC(=O)N1CCC(C)(N2CCC(N3C(=O)N[C@@H]4CCCC[C@@H]43)CC2)CC1 (relative stereo) [Example 13, Propan-2-yl 4-[4-[(cis)-2-oxo-3a,4,5,6,7,7a-hexahydro-3H-benzoimidazol-1-yl]-1-piperidyl]-4-methyl-piperidine-1-carboxylate]
0.919 |  | CC#CCOC(=O)N1CCC(C)(N2CCC(N3C(=O)N[C@H]4CCCC[C@@H]43)CC2)C1 (single isomer, unassigned) [Example 19]
> 90 | > 8.41 | CCOC(=O)N1CCC(C)(N2CCC(N3C(=O)N[C@H]4CCCC[C@@H]43)CC2)C1 (single isomer, unassigned) [Example 21]
3.47 | 0.412 | CCOC(=O)N1CCC(C)(N2CCC(N3C(=O)N[C@H]4CCCC[C@@H]43)CC2)C1 (single isomer, unassigned) [Example 22]
> 1.2 | 0.0499 | CCOC(=O)N1CCC(C)(N2CCC(N3C(=O)N[C@H]4CCCC[C@@H]43)CC2)CC1 [Example 01, Ethyl 4-[4-[(3aS,7aS)-2-oxo-3a,4,5,6,7,7a-hexahydro-3H-benzoimidazol-1-yl]-1-piperidyl]-4-methyl-piperidine-1-carboxylate]
> 6.5 | > 40 | CC1(N2CCC(N3C(=O)N[C@H]4CCCC[C@@H]43)CC2)CCN(C(=O)C2CC2)CC1 [Example 03, (3aS,7aS)-1-[1-[1-(cyclopropanecarbonyl)-4-methyl-4-piperidyl]-4-piperidyl]-3a,4,5,6,7,7a-hexahydro-3H-benzoimidazol-2-one]
> 6.1 | 0.586 | CCOC(=O)N1CCC(C)(N2CCC(N3C(=O)N[C@@H]4CCCC[C@H]43)CC2)CC1 [Example 04, Ethyl 4-[4-[(3aR,7aR)-2-oxo-3a,4,5,6,7,7a-hexahydro-3H-benzoimidazol-1-yl]-1-piperidyl]-4-methyl-piperidine-1-carboxylate]
> 30 |  | C#CCOC(=O)N1CCC(C)(N2CCC(N3C(=O)N[C@H]4CCCC[C@@H]43)CC2)CC1 [Example 17, prop-2-ynyl 4-[4-[(3aS,7aS)-2-oxo-3a,4,5,6,7,7a-hexahydro-3H-benzimidazol-1-yl]-1-piperidyl]-4-methyl-piperidine-1-carboxylate]

Structure (SMILES) | EC50 (cloned human M4 receptor) [µM] | EC50 [1] [µM]
CCOC(=O)N1CCC(C)(N2CCC(N3C(=O)C[C@@H]4CCCC[C@H]43)CC2)C1 (stereo in doubt) [Example 23, Ethyl 3-[4-[(3aS,7aR)-2-oxo-3a,4,5,6,7,7a-hexahydro-3H-indol-1-yl]-1-piperidyl]-3-methyl-pyrrolidine-1-carboxylate] | 17 | > 120
CC(C)OC(=O)N1CCC(C)(N2CCC(N3C(=O)N[C@H]4CCCC[C@@H]43)CC2)CC1 [Example 02, Propan-2-yl 4-[4-[(3aS,7aS)-2-oxo-3a,4,5,6,7,7a-hexahydro-3H-benzoimidazol-1-yl]-1-piperidyl]-4-methyl-piperidine-1-carboxylate] | > 30 | > 40
